Reference: patent US20090215908A1, “TOLL LIKE RECEPTOR (TLR) SIGNALING ANTAGONIST” (RELIANCE LIFE SCIENCES PVT. LTD., priority 2007, published 2009)

Experiments:
TNF = test: Pre-screen of anti-TNF activity, cells + LPS (Table 2); type: cell-based
THP-1 cells = test: Toxicity to THP-1 cells by MTT assay; type: cell-based, human; details: analyzed in tandem with TNF-α assay
Excerpt: The toxicity of RSCL-0520 (FIG. 2b) was also by treating cells with RSCL-0520 by MTT assay. […] The viability of the cells (analyzed in tandem by MTT) was not affected by RSCL-0520 indicating its non-toxic nature.

TLR4 [1] = target: T1, TLR4 (Homo sapiens, UniProt O00206); test: TLR4 ligand induced TNF-α secretion in THP-1 cells (ELISA); type: cell-based; details: 1 hr pretreatment, TLR4 ligand 750 ng/ml, 24 hrs
T1 construct: endogenous in cells
T1 sequence (O00206 24-839): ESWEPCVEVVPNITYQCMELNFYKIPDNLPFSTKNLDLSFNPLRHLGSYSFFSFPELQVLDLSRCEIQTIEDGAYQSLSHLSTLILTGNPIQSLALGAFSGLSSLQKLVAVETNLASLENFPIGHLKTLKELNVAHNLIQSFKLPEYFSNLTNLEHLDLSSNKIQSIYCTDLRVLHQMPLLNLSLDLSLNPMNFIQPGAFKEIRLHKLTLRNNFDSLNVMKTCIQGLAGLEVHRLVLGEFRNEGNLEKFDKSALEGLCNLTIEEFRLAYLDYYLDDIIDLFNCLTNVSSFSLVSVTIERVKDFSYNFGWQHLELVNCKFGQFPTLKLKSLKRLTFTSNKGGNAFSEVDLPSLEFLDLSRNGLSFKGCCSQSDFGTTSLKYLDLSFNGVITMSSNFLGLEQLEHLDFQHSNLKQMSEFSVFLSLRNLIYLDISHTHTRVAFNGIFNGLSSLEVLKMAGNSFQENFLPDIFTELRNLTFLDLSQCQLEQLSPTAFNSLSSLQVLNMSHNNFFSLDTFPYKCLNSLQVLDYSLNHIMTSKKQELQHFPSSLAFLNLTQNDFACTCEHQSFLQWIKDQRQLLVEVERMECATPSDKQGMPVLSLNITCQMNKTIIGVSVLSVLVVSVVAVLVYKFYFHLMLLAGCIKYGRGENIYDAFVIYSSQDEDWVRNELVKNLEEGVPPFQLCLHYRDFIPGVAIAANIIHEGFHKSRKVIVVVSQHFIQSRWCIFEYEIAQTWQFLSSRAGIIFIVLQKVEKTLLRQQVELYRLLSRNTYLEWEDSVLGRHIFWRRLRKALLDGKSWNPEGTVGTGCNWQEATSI
T1 sequence (Q9Y6Y9 17-160 partner limits assumed): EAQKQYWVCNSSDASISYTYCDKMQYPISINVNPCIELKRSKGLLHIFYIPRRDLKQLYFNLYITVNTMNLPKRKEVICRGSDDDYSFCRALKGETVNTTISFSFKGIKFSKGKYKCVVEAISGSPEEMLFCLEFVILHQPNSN
Method: (§1) The present invention has checked the effect of various TLR ligands on THP-1 monocytes, PBMCs and their ability to activate and release TNF-α. For this purpose about 9 TLR ligands were used. These ligands were obtained from Apotech Cat; APO-54N-018-K101 and assayed for TNF-α release in culture supernatants. THP-1 (FIG. 1a) and PBMCs (2×10^5 cells/well) (FIG. 1b) were plated in 96-well plate. The cells were pretreated with RSCL-0520 in DMSO 1 hr prior to TLR ligand treatment. Following 1 hr pre-treatment, the cells were treated with TLR ligands [TLR2, TLR5 and TLR6-75 ng/ml each, TLR3-75 μg/ml, TLR4-750 ng/ml, TLR7, TLR8 and TLR9-7.5 μg/ml) for 24 hrs. The culture supernatant were collected after the stipulated time and assayed for TNF-α release using a Duoset Enzyme-Linked ImmunoSorbent Assay (ELISA) detection Kit (R&D systems, MN 55413, USA; Cat: DY-210 E). Simultaneously, supernatants from cells treated with ligands without RSCL-0520 pre-treatment and RSCL-0520 without ligand treatment were collected which served as respective controls.

serum TNF-α [2] = test: LPS induced TNF-α release in Balb/c mice, pre-treatment; type: in vivo; details: serum 1 hr post LPS
Method: (§2) The present invention has studied the ability of RSCL-0520 to exert protection against inflammatory agents in a mice (Balb/c) model. Balb/c (5-6 weeks) mice were injected with LPS (225 μg) intraperitoneally with and without pretreatment of RSCL-0520 (10 and 20 mg/kg). The compound was injected intraperitoneally 30 min before LPS treatment. The mice were monitored for 1 hr post LPS treatment. Untreated mice served as controls. Blood from retro-orbital plexus was collected under anesthesia 1 hr post LPS injection. Serum collected was analysed for TNF-α secretion using an ELISA detection kit.

TLR4 [3] = target: T1, TLR4; test: TLR4 ligand induced TNF-α secretion in PBMCs (ELISA); type: cell-based; details: 1 hr pretreatment, TLR4 ligand 750 ng/ml, 24 hrs
Method: as §1

serum TNF-α [4] = test: LPS induced TNF-α release in Balb/c mice, treatment post LPS; type: in vivo
Method: as §2
Our results have more significance from the post LPS treatment of RSCL-0520. Here we have stimulated the inflammation process in mice with an injection of LPS (225 μg) intraperitoneally and 30 min post LPS, we have challenged the ability of RSCL-0520 at two different doses (10 mg/kg, 20 mg/kg) to inhibit the TNF-α secretion.

| SMILES | inhibition at 1 µM (TNF; Cells + 1 μM + LPS) [%] | inhibition at 10 µM (TNF; Cells + 10 μM + LPS) [%] | inhibition at 50 µM (TNF; Cells + 50 μM + LPS) [%] | inhibition at 100 µM (TNF; Cells + 100 μM + LPS) [%] | other results |
| --- | --- | --- | --- | --- | --- |
| COc1c(O)cc2ccc3cc(O)ccc3c2c1OC [RSCL-0518, 2,7-dihydroxy-3,4-dimethoxyphenanthrene] | 0 | 0 | 39 | 87 |  |
| COc1c(OC(C)=O)cc2ccc3cc(OC(C)=O)ccc3c2c1OC [RSCL-0519, 2,7-diacetoxy-3,4-dimethoxyphenanthrene] | 0 | 0 | 21 | 72 |  |
| COc1cc(O)c2c(c1)CCc1c-2ccc(OC)c1O [RSCL-0520, 1,5-dihydroxy-2,7-dimethoxy-9,10-dihydrophenanthrene] | 4 | 40 | 95 | 100 | viability of the cells (MTT) (THP-1 cells): not affected; decrease of TNF-α production (TLR4 [1]): ~50%; reduction of serum TNF production (serum TNF-α [2]; 10 mg/kg i.p. 30 min before LPS 225 μg i.p.): ~66%; reduction of serum TNF production (serum TNF-α [2]; 20 mg/kg i.p. 30 min before LPS 225 μg i.p.): ~70%; decrease of TNF-α production (TLR4 [3]): ~50%; inhibition of TNF secretion (serum TNF-α [4]; 10 mg/kg given 30 min post LPS 225 μg i.p.): ~38%; inhibition of TNF secretion (serum TNF-α [4]; 20 mg/kg given 30 min post LPS 225 μg i.p.): 49% |
| COc1cc2c(c(OC(C)=O)c1)-c1ccc(OC)c(OC(C)=O)c1CC2 [RSCL-0521, 1,5-diacetoxy-2,7-dimethoxy-9,10-dihydrophenanthrene] | 0 | 13 | 76 | 92 |  |
| COc1c(OC(=O)/C=C/c2ccc(OC(C)=O)c(OC(C)=O)c2)cc2ccc3cc(OC(=O)/C=C/c4ccc(OC(C)=O)c(OC(C)=O)c4)ccc3c2c1OC [RSCL-0522, 3,4-dimethoxyphenanthrene-2,7-bis-[(2E)-3-[3,4-bis(acetyloxy)phenyl] acrylate] |  |  |  |  | % TNF Inhibition (TNF; Cells + 1 μM + LPS): 0%; % TNF Inhibition (TNF; Cells + 10 μM + LPS): 12%; % TNF Inhibition (TNF; Cells + 50 μM + LPS): 37%; % TNF Inhibition (TNF; Cells + 100 μM + LPS): 34% |
| COc1ccc2c(ccc3cc(OC)c(OC)c(OC)c32)c1 [RSCL-0575, 2,3,4,7-tetramethoxyphenanthrene] | 26 | 33 | 32 | 49 |  |
| COc1cc(OCc2ccccc2)c2c(ccc3c(OCc4ccccc4)c(OC)ccc32)c1 [RSCL-0638, 1,5-dibenzyloxy-2,7-dimethoxy phenanthrene] | 0 | 0 | 0 | 0 |  |
